Patent publication US20220089636A1, “TETRAZOLONE SUBSTITUTED STEROIDS AND USE THEREOF” (Beijing Xuanyi PharmaSciences Co., Ltd., priority 2019, published 2022)
Read-outs that look alike come from different tables or passages of the source.

Experiments:
α1β2γ2 GABAA receptor = target: T1, α1β2γ2 GABAA receptor (Homo sapiens, UniProt P14867+P47870); experiment: Patch clamp electrophysiology assay of recombinant α1β2γ2 GABAA receptors (potentiation of 2 μM GABA-evoked Cl- current); assay type: cell-based; settings: HEK293T cells stably transfected with α1β2γ2 GABAA; for EC50: whole cell, 2 μM GABA, -80 mV; for Emax: HEK-293T, potentiation of 2 μM GABA current
T1 construct: expressed in transfected cells
Description: Cellular electrophysiology is used to measure the pharmacological properties of GABAA receptor modulators in heterologous cell systems. Each compound is tested for its ability to affect GABA mediated currents at a submaximal agonist dose (GABA EC20=2 μM). HEK293T cells are stably transfected with the α1β2γ2 subunits of the GABAA receptor. Flasks or dishes of HEK293 GABAA cells were maintained in the medium (DMEM, 11% (v/v) heat inactivated FBS, 100 or 200 μg/ml G418, 40 μg/ml Hygromycin B, 80 μg/ml Zeocin) and incubated at 37° C. in a humidified incubator with 5% CO2. 12 to 24 hours prior to electrophysiological recordings, the cells were plated on glass cover slips placed in culture dishes and maintained under the same incubation and media conditions. The number of cells being plated on the cover slip should reach a confluence rate at which majority of the cells are single.
For the electrophysiological recordings in the study the following external and internal solutions were used (Table 1):
HEKA EPC 10 USB patch clamp amplifier (from HEKA Elektronik, Germany) was used in the whole cell recording. A cover slip with plenty of single HEK293T-GABAA cells on the surface was removed and placed into a continuously perfused (approximately 1-2 ml/minute) recording chamber mounted on an inverted microscope. GABAA Cl^− current was recorded from single cell using standard whole cell recording techniques. 2 μM GABA was used to evoke GABAA Cl^− current (2 μM of GABA was the EC10-EC20 value of agonist GABA obtained internally on the stable GABAA cells used in this study). After achieving break-in (whole-cell) configuration, the cell was voltage clamped at a holding potential of −80 mV. Only stable cells meeting the recording parameters (membrane resistance Rm>500 MΩ, access resistance (Ra)<15 MΩ, leak current<100 pA in 90% of the recording time) were used. 2 μM GABA was applied to the cell to induce stable Cl^− current first as control for about 2 seconds, test compounds (i.e., compounds of formula (AI), (I), (AII), and (II), or any subgenera thereof) were followed to be applied to the cells for 3 min, then 2 μM GABA was applied to observe the potentiation effect on the GABAA Cl^− current. Different doses of test compound from low to high were applied to the same cell when the cell was stable. A cell was considered stable when current size evoked by 2 μM GABA applied to the cell from time to time was similar. To minimize the possible desensitation of GABAA Cl^− current, duration between applications of test articles was set to 180 seconds.
Test compounds were dissolved in DMSO to form stock solutions (10 mM). Test compounds were diluted to 0.003, 0.01, 0.03, 0.1, 0.3, 1, 3 and 10 μM in bath solution. AU concentrations of test articles were tested on each cell. Data were analyzed using software provided by HEKA, Microsoft Excel and Graphpad Prism (Table 2).

[1] = Mouse PK study (i.v. and p.o.); assay type: in vivo; settings: plasma, male CD1 mice; for half-life: read-out: T1/2 (hr) i.v. (converted); for Vd: read-out: Vss; for bioavailability: 5 mg/kg p.o. vs 1 mg/kg i.v.
Description: Test compounds were dosed to male CD1 mice at 5 mg/kg by oral gavage (p.o.) or 1 mg/kg by intravenous injection (i.v.). Blood samples were taken at 0.083, 0.25, 0.5, 1.0, 3.0, 6.0 and 24 hours post i.v. dosing and at 0.25, 0.5, 1.0, 3.0, 6.0 and 24 hours post p.o. dosing. The plasma concentration of compounds were determined by HPLC.

[2] = iv, 1 mg/kg i.v., read-out: AUClast (hr*ng/mL) i.v.
[3] = po, 5 mg/kg p.o., read-out: AUClast (hr*ng/mL) p.o.

T1 sequence (P14867 28-456): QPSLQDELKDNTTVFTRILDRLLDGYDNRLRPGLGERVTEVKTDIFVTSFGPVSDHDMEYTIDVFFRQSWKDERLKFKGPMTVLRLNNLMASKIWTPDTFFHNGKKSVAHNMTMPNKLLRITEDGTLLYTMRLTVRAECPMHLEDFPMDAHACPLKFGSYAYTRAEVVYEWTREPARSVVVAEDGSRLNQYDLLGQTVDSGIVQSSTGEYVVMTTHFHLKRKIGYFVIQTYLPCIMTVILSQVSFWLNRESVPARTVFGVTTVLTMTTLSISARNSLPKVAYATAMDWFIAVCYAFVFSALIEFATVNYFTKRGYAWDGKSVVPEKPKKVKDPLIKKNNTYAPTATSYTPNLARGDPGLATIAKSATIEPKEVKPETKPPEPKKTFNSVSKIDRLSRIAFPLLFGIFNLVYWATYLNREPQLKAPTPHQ
T1 sequence (P47870 25-512 limits assumed): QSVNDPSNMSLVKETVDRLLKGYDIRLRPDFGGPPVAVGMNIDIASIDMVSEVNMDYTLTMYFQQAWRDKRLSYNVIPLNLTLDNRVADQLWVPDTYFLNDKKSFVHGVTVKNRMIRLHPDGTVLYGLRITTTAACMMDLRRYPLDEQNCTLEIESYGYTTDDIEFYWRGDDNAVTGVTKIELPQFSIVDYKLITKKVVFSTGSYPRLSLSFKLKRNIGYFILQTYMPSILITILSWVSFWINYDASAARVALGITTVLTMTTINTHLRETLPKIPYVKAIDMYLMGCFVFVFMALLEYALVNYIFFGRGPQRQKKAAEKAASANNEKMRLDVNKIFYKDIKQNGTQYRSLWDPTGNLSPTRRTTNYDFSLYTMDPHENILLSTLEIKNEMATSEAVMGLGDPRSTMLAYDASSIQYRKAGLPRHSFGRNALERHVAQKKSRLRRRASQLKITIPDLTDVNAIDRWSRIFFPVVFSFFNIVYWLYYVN
T1 sequence (P18507 40-475 partner): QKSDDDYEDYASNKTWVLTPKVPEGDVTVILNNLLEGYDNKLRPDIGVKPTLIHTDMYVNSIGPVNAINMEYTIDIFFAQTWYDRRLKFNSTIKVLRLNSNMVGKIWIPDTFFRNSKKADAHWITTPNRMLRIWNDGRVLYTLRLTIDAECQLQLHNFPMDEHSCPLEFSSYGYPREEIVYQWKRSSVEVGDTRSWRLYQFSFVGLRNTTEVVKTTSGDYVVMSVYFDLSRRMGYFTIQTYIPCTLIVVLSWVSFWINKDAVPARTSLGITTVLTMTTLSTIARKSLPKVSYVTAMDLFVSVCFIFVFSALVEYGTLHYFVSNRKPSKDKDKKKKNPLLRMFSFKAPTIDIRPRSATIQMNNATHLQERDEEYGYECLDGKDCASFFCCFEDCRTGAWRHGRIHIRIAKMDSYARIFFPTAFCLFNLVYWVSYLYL

Structure (SMILES) | EC50 (α1β2γ2 GABAA receptor) [µM] | clearance ([1]; iv, 1 mg/kg i.v.) [mL/min/kg] | AUC(0-t) [1, 2] [ng·h/mL] | half-life ([1]; iv, 1 mg/kg i.v.) [h] | Vd ([1]; iv, 1 mg/kg i.v.) [L/kg] | Cmax ([1]; po, 5 mg/kg p.o.) [ng/mL] | Tmax ([1]; po, 5 mg/kg p.o.) [h] | bioavailability ([1]; po) [%] | AUC(0-t) [1, 3] [ng·h/mL] | Emax (α1β2γ2 GABAA receptor) [%]
C[C@@]1(O)CC[C@H]2[C@H](CC[C@@H]3[C@@H]2CC[C@]2(C)[C@@H](C(=O)Cn4nnn(-c5ccn[nH]5)c4=O)CC[C@@H]32)C1 [Example 25, 1-(2-((3R,5R,8R,9R,10S,13S,14S,17S)-3-hydroxy-3,13-dimethylhexadecahydro-1H-cyclopenta[a]phenanthren-17-yl)-2-oxoethyl)-4-(1H-pyrazol-5-yl)-1,4-dihydro-5H-tetrazol-5-one] | 0.13 | 6.5 | 2480 | 4.63 | 1.88 | 1190 | 3 | 106 | 12800 | 
C[C@@]1(O)CC[C@H]2[C@H](CC[C@@H]3[C@@H]2CC[C@]2(C)[C@@H](C(=O)Cn4nnn(CC5CC5)c4=O)CC[C@@H]32)C1 [Example 7, 1-(cyclopropylmethyl)-4-(2-((3R,5R,8R,9R,10S,13S,14S,17S)-3-hydroxy-3,13-dimethylhexadecahydro-1H-cyclopenta[a]phenanthren-17-yl)-2-oxoethyl)-1,4-dihydro-5H-tetrazol-5-one] | 0.099 | 68.7 | 239 | 0.6 | 1.69 | 186 | 0.5 | 27.6 | 326 | 
C[C@@]1(O)CC[C@H]2[C@H](CC[C@@H]3[C@@H]2CC[C@]2(C)[C@@H](C(=O)Cn4nnn(-c5cnco5)c4=O)CC[C@@H]32)C1 [Example 23, 1-(2-((3R,5R,8R,9R,10S,13S,14S,17S)-3-hydroxy-3,13-dimethylhexadecahydro-1H-cyclopenta[a]phenanthren-17-yl)-2-oxoethyl)-4-(oxazol-5-yl)-1,4-dihydro-5H-tetrazol-5-one] | 0.096 |  |  |  |  |  |  |  |  | 
C[C@@]1(O)CC[C@H]2[C@H](CC[C@@H]3[C@@H]2CC[C@]2(C)[C@@H](C(=O)Cn4nnn(-c5cccc(F)c5)c4=O)CC[C@@H]32)C1 [Example 12, 1-(3-fluorophenyl)-4-(2-((3R,5R,8R,9R,10S,13S,14S,17S)-3-hydroxy-3,13-dimethylhexadecahydro-1H-cyclopenta[a]phenanthren-17-yl)-2-oxoethyl)-1,4-dihydro-5H-tetrazol-5-one] | 0.0093 | 8.33 | 1880 | 6.22 | 2.86 | 388 | 1 | 42.4 | 4140 | 
C[C@@]1(O)CC[C@H]2[C@H](CC[C@@H]3[C@@H]2CC[C@]2(C)[C@@H](C(=O)Cn4nnn(CC#N)c4=O)CC[C@@H]32)C1 [Example 20, 2-(4-(2-((3R,5R,8R,9R,10S,13S,14S,17S)-3-hydroxy-3,13-dimethylhexadecahydro-1H-cyclopenta[a]phenanthren-17-yl)-2-oxoethyl)-5-oxo-4,5-dihydro-1H-tetrazol-1-yl)acetonitrile] | 0.56 |  |  |  |  |  |  |  |  | 
C[C@@]1(O)CC[C@H]2[C@H](CC[C@@H]3[C@@H]2CC[C@]2(C)[C@@H](C(=O)Cn4nnn(-c5cccc(C#N)c5)c4=O)CC[C@@H]32)C1 [Example 14, 3-(4-(2-((3R,5R,8R,9R,10S,13S,14S,17S)-3-hydroxy-3,13-dimethylhexadecahydro-1H-cyclopenta[a]phenanthren-17-yl)-2-oxoethyl)-5-oxo-4,5-dihydro-1H-tetrazol-1-yl)benzonitrile] | 0.007 | 20.5 | 771 | 1.44 | 1.92 | 250 | 1 | 28.9 | 1120 | 974
Cn1cc(-n2nnn(CC(=O)[C@H]3CC[C@H]4[C@@H]5CC[C@@H]6C[C@](C)(O)CC[C@@H]6[C@H]5CC[C@]34C)c2=O)cn1 [Example 29, 1-(2-((3R,5R,8R,9R,10S,13S,14S,17S)-3-hydroxy-3,13-dimethylhexadecahydro-1H-cyclopenta[a]phenanthren-17-yl)-2-oxoethyl)-4-(1-methyl-1H-pyrazol-4-yl)-1,4-dihydro-5H-tetrazol-5-one] | 0.28 |  |  |  |  |  |  |  |  | 
COc1cccc(-n2nnn(CC(=O)[C@H]3CC[C@H]4[C@@H]5CC[C@@H]6C[C@](C)(O)CC[C@@H]6[C@H]5CC[C@]34C)c2=O)c1 [Example 16, 1-(2-((3R,5R,8R,9R,10S,13S,14S,17S)-3-hydroxy-3,13-dimethylhexadecahydro-1H-cyclopenta[a]phenanthren-17-yl)-2-oxoethyl)-4-(3-methoxyphenyl)-1,4-dihydro-5H-tetrazol-5-one] | 0.0054 | 33 | 500 | 0.9 | 1.54 | 109 | 0.5 | 15.1 | 330 | 578
CC(C)(C)n1nnn(CC(=O)[C@H]2CC[C@H]3[C@@H]4CC[C@@H]5C[C@](C)(O)CC[C@@H]5[C@H]4CC[C@]23C)c1=O [Example 5, 1-(tert-butyl)-4-(2-((3R,5R,8R,9R,10S,13S,14S,17S)-3-hydroxy-3,13-dimethylhexadecahydro-1H-cyclopenta[a]phenanthren-17-yl)-2-oxoethyl)-1,4-dihydro-5H-tetrazol-5-one] | 0.15 | 24.5 | 634 | 7.83 | 8.3 | 276 | 0.5 | 20.5 | 633 | 
C[C@@]1(O)CC[C@H]2[C@H](CC[C@@H]3[C@@H]2CC[C@]2(C)[C@@H](C(=O)Cn4nnn(C5CCCCC5)c4=O)CC[C@@H]32)C1 [Example 9, 1-cyclohexyl-4-(2-((3R,5R,8R,9R,10S,13S,14S,17S)-3-hydroxy-3,13-dimethylhexadecahydro-1H-cyclopenta[a]phenanthren-17-yl)-2-oxoethyl)-1,4-dihydro-5H-tetrazol-5-one] | 1.38 |  |  |  |  |  |  |  |  | 
C[C@@]1(O)CC[C@H]2[C@H](CC[C@@H]3[C@@H]2CC[C@]2(C)[C@@H](C(=O)Cn4nn[nH]c4=O)CC[C@@H]32)C1 [Example 19, 1-(2-((3R,5R,8R,9R,10S,13S,14S,17S)-3-hydroxy-3,13-dimethylhexadecahydro-1H-cyclopenta[a]phenanthren-17-yl)-2-oxoethyl)-1,4-dihydro-5H-tetrazol-5-one] | 24 |  |  |  |  |  |  |  |  | 
C[C@@]1(O)CC[C@H]2[C@H](CC[C@@H]3[C@@H]2CC[C@]2(C)[C@@H](C(=O)Cn4nnn(C5CC5)c4=O)CC[C@@H]32)C1 [Example 6, 1-cyclopropyl-4-(2-((3R,5R,8R,9R,10S,13S,14S,17S)-3-hydroxy-3,13-dimethylhexadecahydro-1H-cyclopenta[a]phenanthren-17-yl)-2-oxoethyl)-1,4-dihydro-5H-tetrazol-5-one] | 0.66 |  |  |  |  |  |  |  |  | 
C[C@@]1(O)CC[C@H]2[C@H](CC[C@@H]3[C@@H]2CC[C@]2(C)[C@@H](C(=O)Cn4nnn(CCC#N)c4=O)CC[C@@H]32)C1 [Example 21, 3-(4-(2-((3R,5R,8R,9R,10S,13S,14S,17S)-3-hydroxy-3,13-dimethylhexadecahydro-1H-cyclopenta[a]phenanthren-17-yl)-2-oxoethyl)-5-oxo-4,5-dihydro-1H-tetrazol-1-yl)propanenitrile] | 0.29 |  |  |  |  |  |  |  |  | 
